Measured values: publication PMC9019904, “AD Informer Set: Chemical tools to facilitate Alzheimer's disease drug discovery” (Alzheimer's & Dementia : Translational Research & Clinical …, 2022)

Assays:
[1] = test system: HMC3 (human microglia) cell line; assay: pHrodo-myelin phagocytosis/cell viability high content imaging assay: viability (cell count, nuclear area, nuclear intensity); conditions: HMC3 cells, 10 uM compound, 48 hours treatment
Method in brief: (§1)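 Viability was read as total cell count per well by high-content imaging, with mean average nuclear intensity per cell profiling apoptosis (rise early, fall late). Compounds were given at 10 μM for 48 h, pHrodo-myelin being added for the final 20 h. Values are means of two points as % untreated control.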

[2] = test system: BV2 (mouse microglia) cell line; assay: as above; conditions: BV2 cells, 10 uM compound, 48 hours treatment
Method in brief: as §1

[3] = test system: HMC3 (human microglia) cell line; assay: pHrodo-myelin phagocytosis/cell viability high content imaging assay: phagocytosis signal; type: cell-based; conditions: HMC3 cells, 10 uM compound, 48 hours treatment, pHrodo-myelin final 20 hours
Method in brief: (§2)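 Read by high content imaging: the phagocytosis signal plus viability, measured simultaneously, with three extracted measurements. Imaging was done roughly 22 hours after pHrodo-myelin was added.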

[4] = test system: BV2 (mouse microglia) cell line; assay: as above; type: cell-based; conditions: BV2 cells, 10 uM compound, 48 hours treatment, pHrodo-myelin final 20 hours
Method in brief: as §2

Fc1ccc(C(CCCNCC2CCc3[nH]c4ccc(F)cc4c3C2)c2ccc(F)cc2)cc1 (stereo not shown) [UNC10302893A]
1. Cell count (% control) [1]: 14.1 % control | 2. Nuclear Area (% Control) [1]: 53.2 % Control | 3. Nuclear DNA Intensity (% control) [1]: 215.4 % control | 1. Cell count (% control) [2]: 10.4 % control | 2. Nuclear Area (% Control) [2]: 127.3 % Control | 3. Nuclear DNA Intensity (% control) [2]: 33.1 % control | 4. Phagocytosis (% control) [3]: 0.0 % control | 4. Phagocytosis (% control) [4]: 0.0 % control

CN(C)C/C=C/C(=O)Nc1cc2c(Nc3ccc(F)c(Cl)c3)ncnc2cc1O[C@H]1CCOC1 [UNC10302894A]
1. Cell count (% control) [1]: 95.3 % control | 2. Nuclear Area (% Control) [1]: 52.1 % Control | 3. Nuclear DNA Intensity (% control) [1]: 246.1 % control | 2. Nuclear Area (% Control) [2]: 107.0 % Control | 3. Nuclear DNA Intensity (% control) [2]: 89.4 % control | 4. Phagocytosis (% control) [3]: 43.8 % control | 4. Phagocytosis (% control) [4]: 41.4 % control

CCC(=C(c1ccc(O)cc1)c1ccc(OCCN(C)C)cc1)c1ccccc1 [UNC10302895A]
1. Cell count (% control) [1]: 134.2 % control | 2. Nuclear Area (% Control) [1]: 100.6 % Control | 3. Nuclear DNA Intensity (% control) [1]: 93.3 % control | 1. Cell count (% control) [2]: 114.3 % control | 2. Nuclear Area (% Control) [2]: 103.3 % Control | 3. Nuclear DNA Intensity (% control) [2]: 103.4 % control | 4. Phagocytosis (% control) [3]: 89.5 % control | 4. Phagocytosis (% control) [4]: 182.9 % control

CC(=O)NCC(=O)N1[C@@H]2CC[C@H]1c1ccc(Nc3ncc(C(F)(F)F)c(NC4CCC4)n3)cc12 [UNC10302896A]
1. Cell count (% control) [1]: 69.3 % control | 2. Nuclear Area (% Control) [1]: 158.3 % Control | 3. Nuclear DNA Intensity (% control) [1]: 82.5 % control | 1. Cell count (% control) [2]: 18.3 % control | 2. Nuclear Area (% Control) [2]: 110.7 % Control | 3. Nuclear DNA Intensity (% control) [2]: 18.8 % control | 4. Phagocytosis (% control) [3]: 16.0 % control | 4. Phagocytosis (% control) [4]: 0.15 % control

OC(c1cc(C23CC4CC(CC(C4)C2)C3)nc2c(Cl)cc(Cl)cc12)C1CCCCN1 (stereo not shown) [UNC10302897A]
1. Cell count (% control) [1]: 110.1 % control | 2. Nuclear Area (% Control) [1]: 94.7 % Control | 3. Nuclear DNA Intensity (% control) [1]: 100.9 % control | 1. Cell count (% control) [2]: 63.8 % control | 2. Nuclear Area (% Control) [2]: 105.3 % Control | 3. Nuclear DNA Intensity (% control) [2]: 99.1 % control | 4. Phagocytosis (% control) [3]: 67.0 % control | 4. Phagocytosis (% control) [4]: 122.3 % control

CN(C)CC[C@H](CSc1ccccc1)Nc1ccc(S(=O)(=O)NC(=O)c2ccc(N3CCN(Cc4ccccc4-c4ccc(Cl)cc4)CC3)cc2)cc1[N+](=O)[O-] [UNC10302898A]
1. Cell count (% control) [1]: 148.0 % control | 2. Nuclear Area (% Control) [1]: 98.3 % Control | 3. Nuclear DNA Intensity (% control) [1]: 97.1 % control | 1. Cell count (% control) [2]: 128.7 % control | 2. Nuclear Area (% Control) [2]: 97.8 % Control | 3. Nuclear DNA Intensity (% control) [2]: 106.0 % control | 4. Phagocytosis (% control) [3]: 82.2 % control | 4. Phagocytosis (% control) [4]: 104.5 % control

CC(Nc1nc(N2CCCC2)nc2ccccc12)c1ccccc1 (stereo not shown) [UNC10302900A]
1. Cell count (% control) [1]: 56.4 % control | 2. Nuclear Area (% Control) [1]: 90.6 % Control | 3. Nuclear DNA Intensity (% control) [1]: 151.6 % control | 1. Cell count (% control) [2]: 9.8 % control | 2. Nuclear Area (% Control) [2]: 106.6 % Control | 3. Nuclear DNA Intensity (% control) [2]: 119.7 % control | 4. Phagocytosis (% control) [3]: 34.5 % control | 4. Phagocytosis (% control) [4]: 110.9 % control

O=c1ccc2c(OCCCCOc3ccccc3)c3ccoc3cc2o1 [UNC10302901A]
1. Cell count (% control) [1]: 143.5 % control | 2. Nuclear Area (% Control) [1]: 101.6 % Control | 3. Nuclear DNA Intensity (% control) [1]: 95.5 % control | 1. Cell count (% control) [2]: 138.9 % control | 2. Nuclear Area (% Control) [2]: 105.4 % Control | 3. Nuclear DNA Intensity (% control) [2]: 102.9 % control | 4. Phagocytosis (% control) [3]: 89.9 % control | 4. Phagocytosis (% control) [4]: 188.1 % control

CS[C@@]1(C(=O)Nc2ccc3[nH]nc(-c4ccc(OC(C)C)nc4)c3c2)CCN(CC(=O)N2CC=C(c3ccc(-c4ncn(C)n4)cc3)CC2)C1 [UNC10302902A]
1. Cell count (% control) [1]: 113.2 % control | 2. Nuclear Area (% Control) [1]: 96.5 % Control | 3. Nuclear DNA Intensity (% control) [1]: 97.1 % control | 1. Cell count (% control) [2]: 54.0 % control | 2. Nuclear Area (% Control) [2]: 110.5 % Control | 3. Nuclear DNA Intensity (% control) [2]: 112.2 % control | 4. Phagocytosis (% control) [3]: 45.1 % control | 4. Phagocytosis (% control) [4]: 339.1 % control

Cc1cc2c(cc1-c1cc(/C=C\C(=O)O)ccc1O)C(C)(C)CCC2(C)C [UNC10302903A]
1. Cell count (% control) [1]: 106.9 % control | 2. Nuclear Area (% Control) [1]: 99.9 % Control | 3. Nuclear DNA Intensity (% control) [1]: 95.8 % control | 1. Cell count (% control) [2]: 102.7 % control | 2. Nuclear Area (% Control) [2]: 107.7 % Control | 3. Nuclear DNA Intensity (% control) [2]: 96.7 % control | 4. Phagocytosis (% control) [3]: 96.9 % control | 4. Phagocytosis (% control) [4]: 143.5 % control

Cc1cc2c(cc1C1(c3ccc(C(=O)O)cn3)CC1)C(C)(C)CCC2(C)C [UNC10302904A]
1. Cell count (% control) [1]: 110.6 % control | 2. Nuclear Area (% Control) [1]: 108.2 % Control | 3. Nuclear DNA Intensity (% control) [1]: 90.0 % control | 1. Cell count (% control) [2]: 72.5 % control | 2. Nuclear Area (% Control) [2]: 111.9 % Control | 3. Nuclear DNA Intensity (% control) [2]: 92.6 % control | 4. Phagocytosis (% control) [3]: 73.6 % control | 4. Phagocytosis (% control) [4]: 105.9 % control

COc1cc(/C=C/c2ccc(NC(=O)/C=C/c3cc(OC)c(OC)c(OC)c3)cc2)cc(OC)c1 [UNC10302905A]
1. Cell count (% control) [1]: 87.3 % control | 2. Nuclear Area (% Control) [1]: 107.2 % Control | 3. Nuclear DNA Intensity (% control) [1]: 109.8 % control | 1. Cell count (% control) [2]: 33.3 % control | 2. Nuclear Area (% Control) [2]: 95.8 % Control | 3. Nuclear DNA Intensity (% control) [2]: 130.4 % control | 4. Phagocytosis (% control) [3]: 65.4 % control | 4. Phagocytosis (% control) [4]: 64.0 % control

Cc1cc(C)nc(NC(=S)N2CCN(c3ccc(C(F)(F)F)cn3)CC2)c1 [UNC10302906A]
1. Cell count (% control) [1]: 134.6 % control | 2. Nuclear Area (% Control) [1]: 95.0 % Control | 3. Nuclear DNA Intensity (% control) [1]: 106.3 % control | 1. Cell count (% control) [2]: 93.3 % control | 2. Nuclear Area (% Control) [2]: 107.2 % Control | 3. Nuclear DNA Intensity (% control) [2]: 105.6 % control | 4. Phagocytosis (% control) [3]: 109.8 % control | 4. Phagocytosis (% control) [4]: 184.1 % control

CCOC(=O)c1sc(NC(=O)c2ccco2)c(SC#N)c1C [UNC10302907A]
1. Cell count (% control) [1]: 96.1 % control | 2. Nuclear Area (% Control) [1]: 63.3 % Control | 3. Nuclear DNA Intensity (% control) [1]: 173.6 % control | 1. Cell count (% control) [2]: 60.9 % control | 2. Nuclear Area (% Control) [2]: 107.8 % Control | 3. Nuclear DNA Intensity (% control) [2]: 107.1 % control | 4. Phagocytosis (% control) [3]: 29.4 % control | 4. Phagocytosis (% control) [4]: 201.8 % control

CCOC(=O)CS(=O)(=O)c1ccc([C@@H](CO)NC(=O)c2cc3c(Cl)c(Cl)c(C)cc3n2C)cc1 [UNC10302908A]
1. Cell count (% control) [1]: 71.6 % control | 2. Nuclear Area (% Control) [1]: 75.5 % Control | 3. Nuclear DNA Intensity (% control) [1]: 156.6 % control | 1. Cell count (% control) [2]: 28.9 % control | 2. Nuclear Area (% Control) [2]: 117.3 % Control | 3. Nuclear DNA Intensity (% control) [2]: 97.5 % control | 4. Phagocytosis (% control) [3]: 53.1 % control | 4. Phagocytosis (% control) [4]: 249.0 % control

CCc1ccc(S(=O)(=O)c2ccccc2)cc1S(=O)(=O)NCCCN(C)C [UNC10302948A]
1. Cell count (% control) [1]: 127.5 % control | 2. Nuclear Area (% Control) [1]: 97.8 % Control | 3. Nuclear DNA Intensity (% control) [1]: 101.2 % control | 1. Cell count (% control) [2]: 115.1 % control | 2. Nuclear Area (% Control) [2]: 106.0 % Control | 3. Nuclear DNA Intensity (% control) [2]: 108.0 % control | 4. Phagocytosis (% control) [3]: 143.6 % control | 4. Phagocytosis (% control) [4]: 187.1 % control
